Paper PMC7298650 (iScience, 2020)
Where two headings read alike, the source gives them in different places.

Tests used:
insulin receptor [1] = target: T1, insulin receptor (Homo sapiens, UniProt P06213); experiment: surface plasmon resonance; format: binding
insulin receptor [2] = target: T1, insulin receptor; experiment: surface plasmon resonance; format: binding; remark: listed apart in the source

T1 sequence (P06213 28-758): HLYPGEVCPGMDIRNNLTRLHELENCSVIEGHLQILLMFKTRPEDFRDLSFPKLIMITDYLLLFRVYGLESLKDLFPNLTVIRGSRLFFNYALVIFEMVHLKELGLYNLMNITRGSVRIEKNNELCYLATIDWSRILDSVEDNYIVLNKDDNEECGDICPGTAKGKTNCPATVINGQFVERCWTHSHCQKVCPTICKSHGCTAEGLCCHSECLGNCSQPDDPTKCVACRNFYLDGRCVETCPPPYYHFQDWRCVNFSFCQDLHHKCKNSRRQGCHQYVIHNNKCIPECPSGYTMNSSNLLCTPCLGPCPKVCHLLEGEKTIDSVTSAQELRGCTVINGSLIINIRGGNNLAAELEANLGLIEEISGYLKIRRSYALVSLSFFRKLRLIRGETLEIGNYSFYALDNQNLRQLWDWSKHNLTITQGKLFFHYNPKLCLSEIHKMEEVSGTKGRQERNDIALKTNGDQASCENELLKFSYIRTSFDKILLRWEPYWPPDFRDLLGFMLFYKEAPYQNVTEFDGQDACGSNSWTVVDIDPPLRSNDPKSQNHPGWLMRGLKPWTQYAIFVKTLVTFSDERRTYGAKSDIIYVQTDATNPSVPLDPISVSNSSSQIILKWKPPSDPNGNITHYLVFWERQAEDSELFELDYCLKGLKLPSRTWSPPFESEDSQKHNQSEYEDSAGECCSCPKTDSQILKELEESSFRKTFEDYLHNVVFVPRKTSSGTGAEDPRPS
T1 sequence (P06213 763-956): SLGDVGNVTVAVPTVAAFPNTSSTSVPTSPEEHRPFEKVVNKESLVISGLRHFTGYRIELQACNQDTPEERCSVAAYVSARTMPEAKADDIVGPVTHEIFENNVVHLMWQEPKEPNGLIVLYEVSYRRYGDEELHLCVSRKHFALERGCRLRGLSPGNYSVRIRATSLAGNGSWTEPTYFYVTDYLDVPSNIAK

Kd (insulin receptor [1]) | Kd (insulin receptor [2]) | SMILES
~84 µM |  | CN(C)C(=N)N=C(N)N [Metformin]
 | ~14 µM | O=c1c2ccccc2nc2n1CCc1c-2[nH]c2ccccc12 [Rut-0, Rutaecarpine]
